Experimental data from patent publication US11214803B2, “Modulators of YAP1 expression” (Ionis Pharmaceuticals, Inc., priority 2019, dated 2022).
Strand notation (5' to 3'): a small letter for the sugar, then the base; units joined by * are phosphorothioate-linked, units joined directly phosphodiester-linked; [ ] holds rarer units or linkages, { } end groups; capitals alone tell only the bases. e = 2'-O-(2-methoxyethyl) (MOE); k = constrained ethyl (cEt); [5mC] = 5-methylcytosine; d = 2'-deoxy (DNA); m = 2'-O-methyl

Tests used:
Yap1 mRNA [1] = test: Dose-dependent inhibition of human Yap1 in SNU-449 cells (Example 9, RTS36584); assay type: cell-based; settings: free uptake; for % UTC (Yap1 mRNA): approximately 48 hours; for IC50: linear regression on a log/linear plot
Procedure, shortened: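 Read-out was Yap1 mRNA (primer-probe RTS36584) normalised to total RNA by RIBOGREEN, given as % of untreated cells, with IC50 fitted by linear regression of log/linear data. Oligonucleotides were dosed by free uptake to SNU-449 cells, 10,000/well, for ~48 h.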

[2] = Tolerability in CD-1 mice, plasma chemistry markers (Example 15); assay type: in vivo; settings: male CD-1 mice, 50 mg/kg s.c. twice a week for four weeks (8 treatments), day 26
Experimental: CD-1 mice were treated with modified oligonucleotides selected from studies described above and evaluated for changes in the levels of various plasma chemistry markers.
Groups of four male CD-1 mice at 4-5 weeks of age (obtained from Charles River) were injected subcutaneously twice a week for four weeks (for a total of 8 treatments) with 50 mg/kg of modified oligonucleotides. One group of male CD-1 mice was injected with PBS. Mice were euthanized on day 26 post start of treatment (24 hrs following the final administration).

Yap1 mRNA [3] = test: Inhibition of human Yap1 mRNA in SNU449 hepatocellular carcinoma xenograft tumors (Example 26); assay type: in vivo; settings: SNU449 xenografts in NSG mice, 50 mg/kg twice weekly for five days, relative to PBS treated animals
Experimental: A SNU449 hepatocellular carcinoma xenograft tumor model was used to evaluate activity of modified oligonucleotides targeted to human Yap1. Ten million SNU449 cells in 30% matrigel were implanted subcutaneously into the flanks of female NOD Cg-Prkdcscid ll2rgtm1Wjl/SzJ (NSG) mice (from Jackson Laboratory) at 4-6 weeks of age. When tumors reached an average volume of 100 mm^3, approximately two weeks post-implantation, groups of four mice each were administered at 50 mg/kg twice weekly with modified oligonucleotides for five days. Tumors were collected and tested for Yap1 mRNA knockdown by RT-qPCR. Yap1 mRNA levels were measured as previously described using the Human Yap1 primer-probe set RTS4814. Yap1 mRNA levels were normalized to actin-beta content, as measured by primer probe set RTS5002. Results are presented in the tables below as percent control of the amount of Yap1 mRNA relative to PBS treated animals (% control).

## 1074461 (kG*kA*kA*dA*dT*dT*dG*dT*d[5mC]*dT*d[5mC]*dA*dT*kG*k[5mC]*k[5mC]) [compound 1074461]
Yap1 mRNA [1]; 31.3 nM
  % UTC (Yap1 mRNA): 76 % UTC
Yap1 mRNA [1]; 125.0 nM
  % UTC (Yap1 mRNA): 37 % UTC
Yap1 mRNA [1]; 500.0 nM
  % UTC (Yap1 mRNA): 15 % UTC
Yap1 mRNA [1]; 2000.00 nM
  % UTC (Yap1 mRNA): 5 % UTC
Yap1 mRNA [1]
  IC50: 100 nM
[2]
  ALB: 2.2 g/dL
  ALT: 1563 U/L
  AST: 865 U/L

## 1198641 (kA*kT*dT*dA*dG*dA*dG*dT*dA*dT*dG*dT*kG*eG*k[5mC]*eA; antisense) [compound 1198641]
Yap1 mRNA [1]; 31.3 nM
  % UTC (Yap1 mRNA): 55 % UTC
Yap1 mRNA [1]; 125.0 nM
  % UTC (Yap1 mRNA): 29 % UTC
Yap1 mRNA [1]; 500.0 nM
  % UTC (Yap1 mRNA): 11 % UTC
Yap1 mRNA [1]; 2000.00 nM
  % UTC (Yap1 mRNA): 3 % UTC
Yap1 mRNA [1]
  IC50: 30 nM
Yap1 mRNA [3]
  Yap1 mRNA in tumors, % control: 68 % control

## 1198673 (kG*kA*dT*dT*dT*dA*dG*dG*dA*dT*dG*d[5mC]*kA*eT*kG*eG; antisense) [compound 1198673]
Yap1 mRNA [1]; 31.3 nM
  % UTC (Yap1 mRNA): 51 % UTC
Yap1 mRNA [1]; 125.0 nM
  % UTC (Yap1 mRNA): 26 % UTC
Yap1 mRNA [1]; 500.0 nM
  % UTC (Yap1 mRNA): 8 % UTC
Yap1 mRNA [1]; 2000.00 nM
  % UTC (Yap1 mRNA): 3 % UTC
Yap1 mRNA [1]
  IC50: < 30 nM
Yap1 mRNA [3]
  Yap1 mRNA in tumors, % control: 52 % control

## 1197269 (kT*kA*kA*dA*mG*dT*dG*dT*dA*dT*dG*dT*d[5mC]*kA*kG*kA; antisense) [compound 1197269]
Yap1 mRNA [1]; 31.3 nM
  % UTC (Yap1 mRNA): 48 % UTC
Yap1 mRNA [1]; 125.0 nM
  % UTC (Yap1 mRNA): 21 % UTC
Yap1 mRNA [1]; 500.0 nM
  % UTC (Yap1 mRNA): 7 % UTC
Yap1 mRNA [1]; 2000.00 nM
  % UTC (Yap1 mRNA): 1 % UTC
Yap1 mRNA [1]
  IC50: < 30 nM
Yap1 mRNA [3]
  Yap1 mRNA in tumors, % control: 57 % control
